Molecular target: T1, wild-type isocitrate dehydrogenase 1 (wtIDH1) (Homo sapiens, UniProt O75874)
T1 construct: gene IDH1; human recombinant IDH1
Experiment: cell-free fluorometric NADPH formation assay at […] Mg2+
Assay type: biochemical

T1 sequence (O75874 2-414): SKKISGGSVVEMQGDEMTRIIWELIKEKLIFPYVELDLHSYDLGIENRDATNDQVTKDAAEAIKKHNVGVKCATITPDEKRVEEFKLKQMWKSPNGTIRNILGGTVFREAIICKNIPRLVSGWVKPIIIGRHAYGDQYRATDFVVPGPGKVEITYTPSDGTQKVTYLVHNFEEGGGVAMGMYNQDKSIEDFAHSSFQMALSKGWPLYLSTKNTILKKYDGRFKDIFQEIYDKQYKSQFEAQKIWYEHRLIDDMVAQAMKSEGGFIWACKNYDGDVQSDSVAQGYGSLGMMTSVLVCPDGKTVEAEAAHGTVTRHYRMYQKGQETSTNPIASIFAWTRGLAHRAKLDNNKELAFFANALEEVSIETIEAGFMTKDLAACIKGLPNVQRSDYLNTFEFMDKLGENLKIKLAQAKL

An IC50 of 91.4 nM was found for `CC1(C)CN(C(=O)c2cn[nH]c2)Cc2c(C(=O)Nc3ccc(F)cc3)nn(Cc3ccc(C(F)(F)F)cc3)c21` [FSM-3-002] in this work.

— article PMC9325670, “Limited nutrient availability in the tumor microenvironment renders pancreatic tumors sensitive to allosteric IDH1 inhibitors” (Nature Cancer, 2022)
